From PubChem BioAssay AID1351 (Sanford-Burnham Center for Chemical Genomics, 2008) come the findings set out here.

Several values for one entry are separate records, joined by “and”; a condition that tells them apart may be missing. Equal values may be shown once.

The experiment concerns PPC-1 thapsigargin-induced death, ATPlite luminescence, 24 h. Description: ER stress death rescue in PPC-1 prostate cells – cell-based, human prostate cancer PPC-1, ATP luminescence, SAR follow-up (AID 1351). Particulars: at 25 µM, stronger effect = higher value.
Setting [1] is: measured here: survival at thapsigargin 15 uM.
Setting [2] is: measured here: survival at thapsigargin 20 uM.
Where [3] appears, read: survival at lower thapsigargin concentration.

For the compound `CCOc1cccc(C2Nc3ccccc3NC3=C2C(=O)CC(c2ccc(OC)cc2)C3)c1` (centres undefined), the survival was 39%. Under setting [1], this compound gave a survival of 14%. Also, the survival under setting [2] worked out at 15%. In addition, under setting [3], the survival was 81% and 87%.

Consider `O=C1CC(c2ccccc2)CC2=C1C(c1c(F)cccc1Cl)Nc1ccccc1N2` (centres undefined), for which the survival is 90%. In addition, under setting [1], the survival amounted to 35%. For the same compound, the survival under setting [2] was 18%. For the same compound, under setting [3], the survival was 86% and 92%.

Take `COc1ccc(C2CC(=O)C3=C(C2)Nc2ccccc2NC3c2cccc(Oc3ccccc3)c2)cc1OC` (centres undefined): the survival was 89%. For the same compound, the survival under setting [1] was determined as 95%. Also, the survival under setting [2] came to 69%. In addition, under setting [3], the survival is 91% and 92%.

`COc1ccc(C2CC(=O)C3=C(C2)Nc2ccccc2NC3c2ccccc2C(F)(F)F)cc1OC` (centres undefined): the survival was 105%. The survival under setting [1] came to 108%. The same compound registered a survival under setting [2] of 56%. Moreover, under setting [3], the survival is 97% and 102%.

On to `COc1ccc(C2CC(=O)C3=C(C2)Nc2ccccc2NC3c2cccc(C(F)(F)F)c2)cc1OC` (centres undefined), for which the survival is 94%. Also, the survival under setting [1] came to 99%. The survival under setting [2] was determined as 69%. For the same compound, the survival under setting [3] was 93% and 94%.

For the compound `CCOc1cc(C2Nc3ccccc3NC3=C2C(=O)CC(c2ccc(OC)cc2)C3)cc(Cl)c1O` (centres undefined), the survival is 62%. The same compound displayed a survival under setting [1] of 11%. Besides, under setting [2], the survival was determined as 8.5%. Also, the survival under setting [3] is 82% and 90%.

Take `CSc1ccc(C2Nc3ccccc3NC3=C2C(=O)CC(c2ccccc2)C3)cc1` (centres undefined): the survival was 89%. Further, the survival under setting [1] was determined as 52%. For the same compound, the survival under setting [2] came to 26%. Further, the survival under setting [3] is 95% and 105%.

For `COc1ccc(C2CC(=O)C3=C(C2)Nc2ccccc2NC3c2cc(C)ccc2C)cc1` (centres undefined), the survival is 88%. Besides, the survival under setting [1] is 83%. The survival under setting [2] was 32%. In addition, the survival under setting [3] was 85% and 91%.

For `COc1ccc(C2CC(=O)C3=C(C2)Nc2ccccc2NC3c2cccc(Br)c2)cc1OC` (centres undefined), the survival is 85%. Moreover, the survival under setting [1] was found to be 102%. In addition, the survival under setting [2] was determined as 59%. In addition, the survival under setting [3] is 94% and 100%.

As for `CCCOc1ccc(C2Nc3ccccc3NC3=C2C(=O)CC(c2ccc(OC)c(OC)c2)C3)cc1` (centres undefined), the survival was 90%. Under setting [1], this compound had a survival of 75%. Moreover, the survival under setting [2] was determined as 37%. For the same compound, the survival under setting [3] is 82% and 81%.

Take `CC1(C)CC(=O)C2=C(C1)Nc1ccccc1NC2c1ccc(-c2ccccc2)cc1` (centres undefined): the survival is 90%. Further, the survival under setting [1] was determined as 86%. This compound displayed a survival under setting [2] of 87%. Also, under setting [3], the survival was 81% and 101%.
